From PubChem BioAssay AID2060605 (Molecular Pharmacology Branch, DTP, NCI, 2025)

System: 947758-054-R-J2-PDC spheroid growth, percent test/control
Experiment: Anticancer human tumor 947758-054-R-J2-PDC patient-derived colon adenocarcinoma cell line growth inhibition [CLK]
Conditions: spheroids with HUVEC and MSC; for IC50: curve of first compound; for viability, T/C: stronger effect = lower value
Method in brief: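 Patient-derived tumor cells grown as complex spheroids with HUVEC endothelial cells and mesenchymal stem cells, treated with drug combinations. Concentrations descend in half-log steps from near clinical Cmax, or from 10 microM if Cmax unknown.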
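Further: spheroids exposed to compounds for one week before readout.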
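Wherever viability, T/C is given: 100% = DMSO vehicle control wells.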

Work on `CC(C)CC(NC(=O)C(Cc1ccccc1)NC(=O)c1cnccn1)B(O)O` (centres undefined) + CNC(=O)c1ccc(Nc2nc(OC3CCCC3)c3c(-c4ccc5nc(C)oc5c4)c[nH]c3n2)c(OC)c1 yielded an IC50 (second compound 0.0316 µM) of 1.85 nM, an IC50 (second compound 0.1 µM) of 1.66 nM and an IC50 (second compound 0.316 µM) of 1.72 nM. For the same compound, the IC50 (second compound 1 µM) was 1.42 nM, the IC50 (second compound 3.16 µM) was under 0.949 nM and the IC50 (second compound 10 µM) was under 0.949 nM. For the same compound, the viability, T/C (second compound 0.0316 µM, first compound 0.000949 µM) was 117%, the viability, T/C (second compound 0.0316 µM, first compound 0.003 µM) was 1.15% and the viability, T/C (second compound 0.0316 µM, first compound 0.00949 µM) was 0.26%. It also gave a viability, T/C (second compound 0.0316 µM, first compound 0.03 µM) of 0.29%, a viability, T/C (second compound 0.0316 µM, first compound 0.0949 µM) of 0.3% and a viability, T/C (second compound 0.0316 µM, first compound 0.3 µM) of 0.28%. For the same compound, the viability, T/C (second compound 0.1 µM, first compound 0.000949 µM) was 89%, the viability, T/C (second compound 0.1 µM, first compound 0.003 µM) was 8.66% and the viability, T/C (second compound 0.1 µM, first compound 0.00949 µM) was 0.26%. For the same compound, the viability, T/C (second compound 0.1 µM, first compound 0.03 µM) was 0.27%, the viability, T/C (second compound 0.1 µM, first compound 0.0949 µM) was 0.25% and the viability, T/C (second compound 0.1 µM, first compound 0.3 µM) was 1.66%. The viability, T/C (second compound 0.316 µM, first compound 0.000949 µM) was 102%, the viability, T/C (second compound 0.316 µM, first compound 0.003 µM) was 1.44% and the viability, T/C (second compound 0.316 µM, first compound 0.00949 µM) was 0.22%. It also gave a viability, T/C (second compound 0.316 µM, first compound 0.03 µM) of 0.22%, a viability, T/C (second compound 0.316 µM, first compound 0.0949 µM) of 0.25% and a viability, T/C (second compound 0.316 µM, first compound 0.3 µM) of 0.23%. For the same compound, the viability, T/C (second compound 1 µM, first compound 0.000949 µM) was 75.7%, the viability, T/C (second compound 1 µM, first compound 0.003 µM) was 2.99% and the viability, T/C (second compound 1 µM, first compound 0.00949 µM) was 0.32%. For the same compound, the viability, T/C (second compound 1 µM, first compound 0.03 µM) was 0.21%, the viability, T/C (second compound 1 µM, first compound 0.0949 µM) was 0.26% and the viability, T/C (second compound 1 µM, first compound 0.3 µM) was 0.46%. It also gave a viability, T/C (second compound 3.16 µM, first compound 0.000949 µM) of 45.1%, a viability, T/C (second compound 3.16 µM, first compound 0.003 µM) of 0.43% and a viability, T/C (second compound 3.16 µM, first compound 0.00949 µM) of 0.21%. The viability, T/C (second compound 3.16 µM, first compound 0.03 µM) was 0.19%, the viability, T/C (second compound 3.16 µM, first compound 0.0949 µM) was 0.21% and the viability, T/C (second compound 3.16 µM, first compound 0.3 µM) was 0.24%. It also gave a viability, T/C (second compound 10 µM, first compound 0.000949 µM) of 38.8%, a viability, T/C (second compound 10 µM, first compound 0.003 µM) of 0.32% and a viability, T/C (second compound 10 µM, first compound 0.00949 µM) of 0.21%. For the same compound, the viability, T/C (second compound 10 µM, first compound 0.03 µM) was 0.2%, the viability, T/C (second compound 10 µM, first compound 0.0949 µM) was 0.23% and the viability, T/C (second compound 10 µM, first compound 0.3 µM) was 0.35%.
In the case of `O=C(c1cc(Cc2n[nH]c(=O)c3ccccc23)ccc1F)N1CCN(C(=O)C2CC2)CC1` + CNC(=O)c1ccc(Nc2nc(OC3CCCC3)c3c(-c4ccc5nc(C)oc5c4)c[nH]c3n2)c(OC)c1, the IC50 (second compound 0.0316 µM) is reported as over 10000 nM, the IC50 (second compound 0.1 µM) is reported as over 10000 nM and the IC50 (second compound 0.316 µM) is reported as over 10000 nM. The IC50 (second compound 1 µM) was over 10000 nM, the IC50 (second compound 3.16 µM) was 156 nM and the IC50 (second compound 10 µM) was under 31.6 nM. It also gave a viability, T/C (second compound 0.0316 µM, first compound 0.0316 µM) of 101%, a viability, T/C (second compound 0.0316 µM, first compound 0.1 µM) of 97.3% and a viability, T/C (second compound 0.0316 µM, first compound 0.316 µM) of 96.3%. For the same compound, the viability, T/C (second compound 0.0316 µM, first compound 1 µM) was 93.5%, the viability, T/C (second compound 0.0316 µM, first compound 3.16 µM) was 113% and the viability, T/C (second compound 0.0316 µM, first compound 10 µM) was 80.9%. For the same compound, the viability, T/C (second compound 0.1 µM, first compound 0.0316 µM) was 110%, the viability, T/C (second compound 0.1 µM, first compound 0.1 µM) was 102% and the viability, T/C (second compound 0.1 µM, first compound 0.316 µM) was 100%. It also gave a viability, T/C (second compound 0.1 µM, first compound 1 µM) of 99.4%, a viability, T/C (second compound 0.1 µM, first compound 3.16 µM) of 110% and a viability, T/C (second compound 0.1 µM, first compound 10 µM) of 73.7%. It also gave a viability, T/C (second compound 0.316 µM, first compound 0.0316 µM) of 94.3%, a viability, T/C (second compound 0.316 µM, first compound 0.1 µM) of 94.8% and a viability, T/C (second compound 0.316 µM, first compound 0.316 µM) of 64.5%. The viability, T/C (second compound 0.316 µM, first compound 1 µM) was 71.5%, the viability, T/C (second compound 0.316 µM, first compound 3.16 µM) was 103% and the viability, T/C (second compound 0.316 µM, first compound 10 µM) was 65%. For the same compound, the viability, T/C (second compound 1 µM, first compound 0.0316 µM) was 63.2%, the viability, T/C (second compound 1 µM, first compound 0.1 µM) was 53% and the viability, T/C (second compound 1 µM, first compound 0.316 µM) was 53.7%. The viability, T/C (second compound 1 µM, first compound 1 µM) was 64.1%, the viability, T/C (second compound 1 µM, first compound 3.16 µM) was 69.2% and the viability, T/C (second compound 1 µM, first compound 10 µM) was 35.8%. The viability, T/C (second compound 3.16 µM, first compound 0.0316 µM) was 56.2%, the viability, T/C (second compound 3.16 µM, first compound 0.1 µM) was 43.6% and the viability, T/C (second compound 3.16 µM, first compound 0.316 µM) was 45.4%. It also gave a viability, T/C (second compound 3.16 µM, first compound 1 µM) of 52.7%, a viability, T/C (second compound 3.16 µM, first compound 3.16 µM) of 54% and a viability, T/C (second compound 3.16 µM, first compound 10 µM) of 37.4%. For the same compound, the viability, T/C (second compound 10 µM, first compound 0.0316 µM) was 47.9%, the viability, T/C (second compound 10 µM, first compound 0.1 µM) was 40.9% and the viability, T/C (second compound 10 µM, first compound 0.316 µM) was 41.5%. For the same compound, the viability, T/C (second compound 10 µM, first compound 1 µM) was 34.4%, the viability, T/C (second compound 10 µM, first compound 3.16 µM) was 35.2% and the viability, T/C (second compound 10 µM, first compound 10 µM) was 35.1%.
